# Assay results published in the NIST ThermoML archive (doi:10.1021/je060170c).
# Numbers after ± are expanded uncertainties.
# Assay: xn = mol fraction of the nth substance listed
# Conditions: 101 kPa, Liquid; for viscosity: Anton Paar Stabinger viscometer
smiles,measurement,setting,value
COc1ccccc1 [anisole] + c1ccccc1,viscosity,"288.15 K, x1 = 0.097",0.747 ± 0.015 mPa·s
same,viscosity,"288.15 K, x1 = 0.175",0.777 ± 0.016 mPa·s
same,viscosity,"288.15 K, x1 = 0.274",0.817 ± 0.017 mPa·s
same,viscosity,"288.15 K, x1 = 0.368",0.856 ± 0.018 mPa·s
same,viscosity,"288.15 K, x1 = 0.4971",0.915 ± 0.019 mPa·s
same,viscosity,"288.15 K, x1 = 0.623",0.976 ± 0.02 mPa·s
same,viscosity,"288.15 K, x1 = 0.72",1.027 ± 0.021 mPa·s
same,viscosity,"288.15 K, x1 = 0.8003",1.072 ± 0.022 mPa·s
same,viscosity,"288.15 K, x1 = 0.8895",1.126 ± 0.023 mPa·s
same,viscosity,"288.15 K, x1 = 1",1.188 ± 0.024 mPa·s
same,mass density,"288.15 K, x1 = 0.097",897.546 ± 0.33 kg/m3
same,speed of sound,"288.15 K, x1 = 0.097",1356.8 ± 5.5 m/s
same,mass density,"288.15 K, x1 = 0.175",907.884 ± 0.32 kg/m3
same,speed of sound,"288.15 K, x1 = 0.175",1364.5 ± 5.5 m/s
same,mass density,"288.15 K, x1 = 0.274",920.511 ± 0.3 kg/m3
same,speed of sound,"288.15 K, x1 = 0.274",1374.4 ± 5.5 m/s
same,mass density,"288.15 K, x1 = 0.368",932.009 ± 0.29 kg/m3
same,speed of sound,"288.15 K, x1 = 0.368",1383.8 ± 5.6 m/s
same,mass density,"288.15 K, x1 = 0.4971",947.045 ± 0.27 kg/m3
same,speed of sound,"288.15 K, x1 = 0.4971",1395.2 ± 5.6 m/s
same,mass density,"288.15 K, x1 = 0.623",960.925 ± 0.26 kg/m3
same,speed of sound,"288.15 K, x1 = 0.623",1406.8 ± 5.7 m/s
same,mass density,"288.15 K, x1 = 0.72",971.118 ± 0.25 kg/m3
same,speed of sound,"288.15 K, x1 = 0.72",1418.4 ± 5.7 m/s
same,mass density,"288.15 K, x1 = 0.8003",979.257 ± 0.24 kg/m3
same,speed of sound,"288.15 K, x1 = 0.8003",1425.2 ± 5.7 m/s
same,mass density,"288.15 K, x1 = 0.8895",988.004 ± 0.23 kg/m3
same,speed of sound,"288.15 K, x1 = 0.8895",1437.5 ± 5.8 m/s
same,mass density,"288.15 K, x1 = 1",998.441 ± 0.23 kg/m3
same,speed of sound,"288.15 K, x1 = 1",1449.1 ± 5.8 m/s
same,viscosity,"293.15 K, x1 = 0.097",0.683 ± 0.014 mPa·s
same,viscosity,"293.15 K, x1 = 0.175",0.71 ± 0.015 mPa·s
same,viscosity,"293.15 K, x1 = 0.274",0.746 ± 0.015 mPa·s
same,viscosity,"293.15 K, x1 = 0.368",0.781 ± 0.016 mPa·s
same,viscosity,"293.15 K, x1 = 0.4971",0.833 ± 0.017 mPa·s
same,viscosity,"293.15 K, x1 = 0.623",0.889 ± 0.018 mPa·s
same,viscosity,"293.15 K, x1 = 0.72",0.936 ± 0.019 mPa·s
same,viscosity,"293.15 K, x1 = 0.8003",0.978 ± 0.02 mPa·s
same,viscosity,"293.15 K, x1 = 0.8895",1.027 ± 0.021 mPa·s
same,viscosity,"293.15 K, x1 = 1",1.084 ± 0.022 mPa·s
same,mass density,"293.15 K, x1 = 0.097",890.999 ± 0.34 kg/m3
same,speed of sound,"293.15 K, x1 = 0.097",1333 ± 5.4 m/s
same,mass density,"293.15 K, x1 = 0.175",901.497 ± 0.33 kg/m3
same,speed of sound,"293.15 K, x1 = 0.175",1340.7 ± 5.4 m/s
same,mass density,"293.15 K, x1 = 0.274",914.322 ± 0.31 kg/m3
same,speed of sound,"293.15 K, x1 = 0.274",1350.8 ± 5.5 m/s
same,mass density,"293.15 K, x1 = 0.368",926.005 ± 0.3 kg/m3
same,speed of sound,"293.15 K, x1 = 0.368",1360.5 ± 5.5 m/s
same,mass density,"293.15 K, x1 = 0.4971",941.295 ± 0.28 kg/m3
same,speed of sound,"293.15 K, x1 = 0.4971",1373.9 ± 5.5 m/s
same,mass density,"293.15 K, x1 = 0.623",955.425 ± 0.27 kg/m3
same,speed of sound,"293.15 K, x1 = 0.623",1387.2 ± 5.6 m/s
same,mass density,"293.15 K, x1 = 0.72",965.807 ± 0.26 kg/m3
same,speed of sound,"293.15 K, x1 = 0.72",1397.5 ± 5.6 m/s
same,mass density,"293.15 K, x1 = 0.8003",974.102 ± 0.25 kg/m3
same,speed of sound,"293.15 K, x1 = 0.8003",1406.1 ± 5.7 m/s
same,mass density,"293.15 K, x1 = 0.8895",983.017 ± 0.24 kg/m3
same,speed of sound,"293.15 K, x1 = 0.8895",1415.9 ± 5.7 m/s
same,mass density,"293.15 K, x1 = 1",993.649 ± 0.23 kg/m3
same,speed of sound,"293.15 K, x1 = 1",1428.5 ± 5.7 m/s
same,viscosity,"298.15 K, x1 = 0.097",0.638 ± 0.013 mPa·s
same,viscosity,"298.15 K, x1 = 0.175",0.664 ± 0.014 mPa·s
same,viscosity,"298.15 K, x1 = 0.274",0.697 ± 0.014 mPa·s
same,viscosity,"298.15 K, x1 = 0.368",0.73 ± 0.015 mPa·s
same,viscosity,"298.15 K, x1 = 0.4971",0.779 ± 0.016 mPa·s
same,viscosity,"298.15 K, x1 = 0.623",0.831 ± 0.017 mPa·s
same,viscosity,"298.15 K, x1 = 0.72",0.877 ± 0.018 mPa·s
same,viscosity,"298.15 K, x1 = 0.8003",0.918 ± 0.019 mPa·s
same,viscosity,"298.15 K, x1 = 0.8895",0.963 ± 0.02 mPa·s
same,viscosity,"298.15 K, x1 = 1",1.017 ± 0.021 mPa·s
same,mass density,"298.15 K, x1 = 0.097",887.083 ± 0.34 kg/m3
same,speed of sound,"298.15 K, x1 = 0.097",1309.3 ± 5.3 m/s
same,mass density,"298.15 K, x1 = 0.175",897.532 ± 0.33 kg/m3
same,speed of sound,"298.15 K, x1 = 0.175",1317 ± 5.4 m/s
same,mass density,"298.15 K, x1 = 0.274",910.286 ± 0.32 kg/m3
same,speed of sound,"298.15 K, x1 = 0.274",1327.1 ± 5.4 m/s
same,mass density,"298.15 K, x1 = 0.368",921.904 ± 0.3 kg/m3
same,speed of sound,"298.15 K, x1 = 0.368",1337 ± 5.4 m/s
same,mass density,"298.15 K, x1 = 0.4971",937.104 ± 0.29 kg/m3
same,speed of sound,"298.15 K, x1 = 0.4971",1350.8 ± 5.5 m/s
same,mass density,"298.15 K, x1 = 0.623",951.156 ± 0.27 kg/m3
same,speed of sound,"298.15 K, x1 = 0.623",1364.6 ± 5.5 m/s
same,mass density,"298.15 K, x1 = 0.72",961.483 ± 0.26 kg/m3
same,speed of sound,"298.15 K, x1 = 0.72",1375.5 ± 5.5 m/s
same,mass density,"298.15 K, x1 = 0.8003",969.734 ± 0.26 kg/m3
same,speed of sound,"298.15 K, x1 = 0.8003",1384.6 ± 5.6 m/s
same,mass density,"298.15 K, x1 = 0.8895",978.597 ± 0.25 kg/m3
same,speed of sound,"298.15 K, x1 = 0.8895",1394.8 ± 5.6 m/s
same,mass density,"298.15 K, x1 = 1",989.15 ± 0.24 kg/m3
same,speed of sound,"298.15 K, x1 = 1",1408 ± 5.7 m/s
same,viscosity,"303.15 K, x1 = 0.097",0.601 ± 0.012 mPa·s
same,viscosity,"303.15 K, x1 = 0.175",0.623 ± 0.013 mPa·s
same,viscosity,"303.15 K, x1 = 0.274",0.651 ± 0.013 mPa·s
same,viscosity,"303.15 K, x1 = 0.368",0.679 ± 0.014 mPa·s
same,viscosity,"303.15 K, x1 = 0.4971",0.72 ± 0.015 mPa·s
same,viscosity,"303.15 K, x1 = 0.623",0.767 ± 0.016 mPa·s
same,viscosity,"303.15 K, x1 = 0.72",0.808 ± 0.017 mPa·s
same,viscosity,"303.15 K, x1 = 0.8003",0.844 ± 0.017 mPa·s
same,viscosity,"303.15 K, x1 = 0.8895",0.883 ± 0.018 mPa·s
same,viscosity,"303.15 K, x1 = 1",0.931 ± 0.019 mPa·s
same,mass density,"303.15 K, x1 = 0.097",881.745 ± 0.35 kg/m3
same,speed of sound,"303.15 K, x1 = 0.097",1286.9 ± 5.3 m/s
same,mass density,"303.15 K, x1 = 0.175",892.244 ± 0.34 kg/m3
same,speed of sound,"303.15 K, x1 = 0.175",1295.4 ± 5.3 m/s
same,mass density,"303.15 K, x1 = 0.274",905.059 ± 0.33 kg/m3
same,speed of sound,"303.15 K, x1 = 0.274",1306.3 ± 5.3 m/s
same,mass density,"303.15 K, x1 = 0.368",916.731 ± 0.31 kg/m3
same,speed of sound,"303.15 K, x1 = 0.368",1316.6 ± 5.4 m/s
same,mass density,"303.15 K, x1 = 0.4971",932.013 ± 0.3 kg/m3
same,speed of sound,"303.15 K, x1 = 0.4971",1330.9 ± 5.4 m/s
same,mass density,"303.15 K, x1 = 0.623",946.146 ± 0.28 kg/m3
same,speed of sound,"303.15 K, x1 = 0.623",1345 ± 5.5 m/s
same,mass density,"303.15 K, x1 = 0.72",956.542 ± 0.27 kg/m3
same,speed of sound,"303.15 K, x1 = 0.72",1355.8 ± 5.5 m/s
same,mass density,"303.15 K, x1 = 0.8003",964.845 ± 0.26 kg/m3
same,speed of sound,"303.15 K, x1 = 0.8003",1364.9 ± 5.5 m/s
same,mass density,"303.15 K, x1 = 0.8895",973.764 ± 0.26 kg/m3
same,speed of sound,"303.15 K, x1 = 0.8895",1375.1 ± 5.6 m/s
same,mass density,"303.15 K, x1 = 1",984.374 ± 0.24 kg/m3
same,speed of sound,"303.15 K, x1 = 1",1387.7 ± 5.6 m/s
